The record followed here is US20140288043A1, “PYRAZOLOPYRIDINE COMPOUNDS” (Genentech, Inc., priority 2013, published 2014).

This assay deals with LRRK2 (Homo sapiens, UniProt Q5S007). Kind of assay: LRRK2 protein kinase assay ([γ-33P] ATP, peptide substrate), KI values of Table 1. In kind it is biochemical. The following applies: LRRK2 affinity values. From the text: All LRRK2 protein kinases were of human origin and were sourced from Invitrogen Corporation (Carlsbad, Calif. 92008 USA) unless otherwise indicated. The active mutant used was recombinant human, catalytic domain (amino acids 970-2527) containing a G2019S mutation, GST-tagged, expressed in insect cells (Invitrogen Cat#PV4881). The wild type used was recombinant human, catalytic domain (amino acids 970-2527) GST-tagged, expressed in insect cells (Invitrogen Cat#PV4873). The kinase dead mutant used was recombinant human, catalytic domain (amino acids 970-2527) containing a D1994A mutation, GST-tagged, expressed in insect cells (Invitrogen Cat#PM4041AE). No special measures were taken to activate any of the kinases.
Chain of LRRK2 (Q5S007 whole entry G2019S, form open, the tested form may be a part): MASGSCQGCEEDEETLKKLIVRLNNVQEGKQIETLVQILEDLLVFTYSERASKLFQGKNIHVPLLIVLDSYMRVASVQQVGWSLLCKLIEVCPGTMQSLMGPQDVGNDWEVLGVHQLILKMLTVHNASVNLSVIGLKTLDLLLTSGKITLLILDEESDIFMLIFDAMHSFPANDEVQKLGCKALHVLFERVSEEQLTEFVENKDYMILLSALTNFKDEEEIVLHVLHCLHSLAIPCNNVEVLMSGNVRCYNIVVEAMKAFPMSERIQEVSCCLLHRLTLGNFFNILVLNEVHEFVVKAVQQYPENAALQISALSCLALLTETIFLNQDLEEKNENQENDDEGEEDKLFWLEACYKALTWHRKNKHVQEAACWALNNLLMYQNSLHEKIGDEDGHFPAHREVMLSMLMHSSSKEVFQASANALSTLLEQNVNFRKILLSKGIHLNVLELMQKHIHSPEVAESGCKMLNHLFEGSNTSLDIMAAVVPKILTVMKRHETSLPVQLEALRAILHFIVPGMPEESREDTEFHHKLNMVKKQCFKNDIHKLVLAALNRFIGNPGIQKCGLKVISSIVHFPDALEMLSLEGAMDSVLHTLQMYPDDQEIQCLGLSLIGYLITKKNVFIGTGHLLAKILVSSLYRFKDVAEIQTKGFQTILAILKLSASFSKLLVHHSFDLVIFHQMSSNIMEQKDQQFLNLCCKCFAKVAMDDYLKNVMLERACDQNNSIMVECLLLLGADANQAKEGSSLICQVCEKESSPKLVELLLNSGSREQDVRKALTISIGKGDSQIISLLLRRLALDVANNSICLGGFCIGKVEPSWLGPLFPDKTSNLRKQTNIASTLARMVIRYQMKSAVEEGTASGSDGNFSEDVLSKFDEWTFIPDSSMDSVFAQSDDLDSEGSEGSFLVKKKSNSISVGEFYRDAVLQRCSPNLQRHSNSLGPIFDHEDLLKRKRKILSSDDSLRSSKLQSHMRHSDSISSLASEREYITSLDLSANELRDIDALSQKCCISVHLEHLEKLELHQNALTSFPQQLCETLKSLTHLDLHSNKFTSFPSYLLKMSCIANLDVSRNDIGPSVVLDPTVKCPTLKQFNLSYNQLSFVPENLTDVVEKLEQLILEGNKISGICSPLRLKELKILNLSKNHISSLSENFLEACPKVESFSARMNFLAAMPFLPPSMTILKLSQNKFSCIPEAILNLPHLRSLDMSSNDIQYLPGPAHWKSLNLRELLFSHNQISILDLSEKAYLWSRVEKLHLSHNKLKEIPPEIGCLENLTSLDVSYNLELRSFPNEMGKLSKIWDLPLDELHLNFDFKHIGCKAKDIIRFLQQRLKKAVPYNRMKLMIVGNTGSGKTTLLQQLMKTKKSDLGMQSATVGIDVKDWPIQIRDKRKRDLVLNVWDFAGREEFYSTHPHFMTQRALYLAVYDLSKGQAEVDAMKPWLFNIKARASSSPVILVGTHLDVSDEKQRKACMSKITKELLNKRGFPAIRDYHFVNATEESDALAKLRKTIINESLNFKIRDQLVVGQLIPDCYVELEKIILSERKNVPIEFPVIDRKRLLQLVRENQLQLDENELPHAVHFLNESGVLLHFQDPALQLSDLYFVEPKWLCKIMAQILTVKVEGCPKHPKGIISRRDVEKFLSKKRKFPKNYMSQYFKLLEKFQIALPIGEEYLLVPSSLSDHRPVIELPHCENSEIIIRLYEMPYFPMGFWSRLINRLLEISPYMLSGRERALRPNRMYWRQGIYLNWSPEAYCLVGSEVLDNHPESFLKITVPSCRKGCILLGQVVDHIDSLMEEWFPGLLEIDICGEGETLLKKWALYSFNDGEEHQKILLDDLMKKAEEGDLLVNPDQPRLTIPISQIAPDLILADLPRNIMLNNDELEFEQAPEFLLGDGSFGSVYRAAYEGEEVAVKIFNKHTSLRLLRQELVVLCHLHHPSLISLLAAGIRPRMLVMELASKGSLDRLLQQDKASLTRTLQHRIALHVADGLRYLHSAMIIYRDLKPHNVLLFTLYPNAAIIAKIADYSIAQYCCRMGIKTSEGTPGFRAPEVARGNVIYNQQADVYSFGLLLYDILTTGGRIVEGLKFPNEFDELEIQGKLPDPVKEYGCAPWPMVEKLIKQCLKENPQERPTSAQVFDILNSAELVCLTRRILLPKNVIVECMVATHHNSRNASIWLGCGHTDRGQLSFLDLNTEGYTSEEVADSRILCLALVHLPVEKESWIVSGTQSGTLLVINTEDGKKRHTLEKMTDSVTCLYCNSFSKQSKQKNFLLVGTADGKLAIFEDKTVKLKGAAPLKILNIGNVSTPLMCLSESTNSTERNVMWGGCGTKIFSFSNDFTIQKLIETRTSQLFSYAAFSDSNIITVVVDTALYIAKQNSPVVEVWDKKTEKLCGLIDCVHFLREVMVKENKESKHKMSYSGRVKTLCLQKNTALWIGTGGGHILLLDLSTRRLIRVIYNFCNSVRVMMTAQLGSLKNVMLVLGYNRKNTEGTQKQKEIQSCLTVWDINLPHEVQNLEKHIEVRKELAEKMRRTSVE
All assays were carried out at room temperature (˜21° C.) and were linear with respect to time and enzyme concentration under the conditions used. Assays were performed for 180 min in a 96 well format. LRRK2 was present at a concentration of approximately 5 nM. The enzyme was diluted and assayed in 50 mM Tris-HCl pH7.5, 0.1 mM EGTA, 1 mM DTT and 10 mM MgCl2. The concentration of magnesium chloride in the assay was 10 mM. The [γ-33P] ATP (0.4 μCi/well) was used at 134 uM for G2019S mutant and at 57 μM for the wild type kinase in order to be at Km. The peptide substrate in the assay was […] at 100 μM.
The assays were initiated with Mg/ATP and stopped by the addition of 25 μl/well 50% orthophosphoric acid. Reactions were harvested onto Whatman P81 Unifilter Plates (Fisher Scientific. Loughborough, LE115RG, UK. Cat# FDU-105-020U) using a Tomtec harvester. (Tomtec Hamden, Conn. 06514. USA) Plates were counted using a Perkin Elmer Top Count NX7. (Perkin Elmer, Shelton Conn. 06484-4794 USA)
IC50 values of inhibitors were determined after carrying out assays at 10 different concentrations of each compound in duplicate.
Compound `CCNc1nccc2[nH]nc(-c3cn(C)nn3)c12` [Compound 10, N-ethyl-3-(1-methyl-1H-1,2,3-triazol-4-yl)-1H-pyrazolo[4,3-c]pyridin-4-amine] returned a Ki of 14.5 nM.

`FC1(F)CCC(Nc2nccc3[nH]nc(-c4cc(C(F)(F)F)ncn4)c23)CC1` [Compound 66, N-(4,4-difluorocyclohexyl)-3-(6-(trifluoro-methyl)pyrimidin-4-yl)-1H-pyrazolo[4,3-c]pyridin-4-amine] had an inhibitory constant (Ki) of 22.9 nM.

The compound `Cc1cc2[nH]nc(-c3cc(C(=O)N(C)C)ccn3)c2c(NC2CCOCC2)n1` [Compound 60, N,N-dimethyl-2-(6-methyl-4-((tetrahydro-2H-pyran-4-yl)amino)-1H-pyrazolo[4,3-c]pyridin-3-yl)isonicotinamide] showed an inhibition constant (Ki) of 644 nM. Compared with the last compound, the Ki is about 28-fold higher.

In turn, `FC(F)(F)c1cc(-c2n[nH]c3ccnc(NC4CCOCC4)c23)ncn1` [Compound 22, N-(tetrahydro-2H-pyran-4-yl)-3-(6-(trifluoromethyl)pyrimidin-4-yl)-1H-pyrazolo[4,3-c]pyridin-4-amine] displayed an inhibition constant (Ki) of 2.9 nM.

In turn, `CC(C)Nc1nccc2[nH]nc(-c3cn(C)nn3)c12` [Compound 8, N-isopropyl-3-(1-methyl-1H-1,2,3-triazol-4-yl)-1H-pyrazolo[4,3-c]pyridin-4-amine] yielded a Ki of 5.2 nM.

`Cc1nc(-c2n[nH]c3ccnc(NC4CCC(F)(F)CC4)c23)cc(C(F)(F)F)n1` [Compound 67, N-(4,4-difluorocyclohexyl)-3-(2-methyl-6-(trifluoromethyl)pyrimidin-4-yl)-1H-pyrazolo[4,3-c]pyridin-4-amine] gave a Ki of 20.3 nM.

For `Clc1ccnc(-c2n[nH]c3ccnc(NC4CCOCC4)c23)c1` [Compound 29, 3-(4-chloropyridin-2-yl)-N-(tetrahydro-2H-pyran-4-yl)-1H-pyrazolo[4,3-c]pyridin-4-amine], affinity was put at a Ki of 0.7 nM. This Ki lies about 29-fold lower than the previous one.

On to `CCNc1nccc2[nH]nc(-c3ccccn3)c12` [Compound 16, N-ethyl-3-(pyridin-2-yl)-1H-pyrazolo[4,3-c]pyridin-4-amine], for which the affinity, expressed as Ki, was 66.4 nM.

Consider `CC(C)Nc1nccc2[nH]nc(-c3nnc(C4CC4)n3C)c12` [Compound 41, 3-(5-cyclopropyl-4-methyl-4H-1,2,4-triazol-3-yl)-N-isopropyl-1H-pyrazolo[4,3-c]pyridin-4-amine], for which the inhibitory constant (Ki) turned out to be 151 nM. This Ki is about 2.3-fold higher than that of the compound before.

Consider `CC(C)Nc1nccc2[nH]nc(-c3cc(C(=O)N4CCOCC4)ccn3)c12` [Compound 56, (2-(4-(isopropylamino)-1H-pyrazolo[4,3-c]pyridin-3-yl)pyridin-4-yl)(morpholino)methanone], for which the inhibition constant Ki amounted to 80.3 nM.

For `FC1(F)CN(c2ccnc(-c3n[nH]c4ccnc(NC5CCOCC5)c34)c2)CC(F)(F)O1` [Compound 61, 3-(4-(2,2,6,6-tetrafluoro-morpholino)pyridin-2-yl)-N-(tetrahydro-2H-pyran-4-yl)-1H-pyrazolo[4,3-c]pyridin-4-amine], the Ki came to 1.4 nM.

As for `CC(C)Nc1nccc2[nH]nc(-c3cn(C(C)C)nn3)c12` [Compound 7, N-isopropyl-3-(1-isopropyl-1H-1,2,3-triazol-4-yl)-1H-pyrazolo[4,3-c]pyridin-4-amine], affinity was put at a Ki of 4.4 nM. This Ki is about 3.1-fold higher than that of the compound before.

The compound `CC(C)Nc1nccc2[nH]nc(-c3cc(C4CCOC4)ccn3)c12` (stereo not drawn) [Compound 49, N-isopropyl-3-(4-(tetrahydrofuran-3-yl)pyridin-2-yl)-1H-pyrazolo[4,3-c]pyridin-4-amine] gave a Ki of 4.6 nM.

With `CC(C)Nc1nccc2[nH]nc(-c3cc(C(F)(F)F)ccn3)c12` [Compound 20, N-isopropyl-3-(4-(trifluoromethyl)pyridin-2-yl)-1H-pyrazolo[4,3-c]pyridin-4-amine], the affinity corresponds to a Ki of 1.6 nM.

`CC(C)Nc1nccc2[nH]nc(-c3cc(C#N)ccn3)c12` [Compound 31, 2-(4-(isopropylamino)-1H-pyrazolo[4,3-c]pyridin-3-yl)isonicotinonitrile] had an inhibition constant Ki of 2.3 nM.

The term Ki denotes the dissociation constant of the complex between target and ligand, obtained from inhibition or displacement. Read a low Ki as a stronger hold on the target.
